What all share (assay): inhibition of tumour cell growth, NCI panel, 48 h
The test system of experiment [1] is A549.
The subject of experiment [2] is UACC-62.
Experiment [3] deals with ACHN.
The subject of experiment [4] is OVCAR-5.
The test system of experiment [5] is NCI-H522.
The subject of experiment [6] is SK-MEL-2.
Experiment [7] has as its system DMS-114.
In experiment [8] the test system is NCI-H460.
Experiment [9] relates to KM12.
Experiment [10] has as its system SF-295.
The subject of experiment [11] is Hs-578T.
The test system of experiment [12] is HT-29.
In experiment [13] the test system is Malme-3M.
Experiment [14] concerns DU-145.
Experiment [15] has as its system SNB-75.
Experiment [16] concerns A498.
The subject of experiment [17] is CCRF-CEM.
In experiment [18] the test system is OVCAR-3.
The test system of experiment [19] is SF-539.
The test system of experiment [20] is SNB-19.

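All cell lines were grown in 96-well plates and treated with compound for 48 hours. GI50: concentration for 50% inhibition of growth.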 Activity calls are given as the source filed them. Cut-off read from the data, not from the text of the source: active = GI50 up to about 1.1 µM and inactive = higher. Where only a bound is given, the exact number is not on record here.

`CC[C@@]1(OP(=O)(O)O)C(=O)OCc2c1cc1n(c2=O)Cc2cc3ccccc3nc2-1`: the GI50 was 0.143 µM (active) in experiment [1]; 0.0381 µM (active) in experiment [2]; 0.0405 µM (active) in experiment [3]; 0.231 µM (active) in [4]; 0.286 µM (active) in experiment [5]; 2.94 µM (inactive) in experiment [6]. In addition, the GI50 is 0.0485 µM (active) in [7]; 0.0308 µM (active) in [8]; 0.398 µM (active) in [9]; 0.0301 µM (active) in experiment [10]; > 10 µM (inactive) in experiment [11]; 0.319 µM (active) in experiment [12]. The GI50 in [13] is 1.67 µM (inactive); in experiment [14], 0.0488 µM (active); in experiment [15], 0.16 µM (active); in experiment [16], 0.0817 µM (active); in experiment [17] it was 0.00927 µM (active); in experiment [18] it was 2.73 µM (inactive). Further, the GI50 in experiment [19] was 0.109 µM (active); in [20], 0.0798 µM (active).

With `CC1=C(C(=O)Nc2ccccc2)C(c2ccc(C(C)C)cc2)C(C(=O)Nc2ccccc2)=C(C)N1`, the GI50 was 16.5 µM (inactive) in experiment [1]; 13.6 µM (inactive) in experiment [2]; 17.3 µM (inactive) in experiment [3]; 17.3 µM (inactive) in experiment [4]; 15.1 µM (inactive) in experiment [5]; 13.8 µM (inactive) in experiment [6]. Further, the GI50 is 7.26 µM (inactive) in experiment [7]; 18.9 µM (inactive) in [8]; 22.2 µM (inactive) in [9]; 37.9 µM (inactive) in experiment [10]; 15.2 µM (inactive) in [12]; 15.5 µM (inactive) in [13]. Moreover, the GI50 in experiment [15] is 18.7 µM (inactive); in experiment [16], 24 µM (inactive); in [17], 13.3 µM (inactive); in experiment [18] it was 18.2 µM (inactive); in experiment [19], 12.8 µM (inactive); in experiment [20] it was 29.4 µM (inactive).

For the molecule `Cc1cc2c(cc1C)[n+]([O-])c(C(=O)/C=C/c1ccc3c(c1)OCO3)c(C)[n+]2[O-]`, the GI50 in [1] is > 92.9 µM (inactive); in experiment [2] it was 29.9 µM (inactive); in experiment [3], 40.9 µM (inactive); in experiment [4], > 100 µM (inactive); in experiment [5] it was 27.6 µM (inactive); in experiment [6] it was 27.9 µM (inactive). The GI50 is 33.1 µM (inactive) in experiment [7]; > 91.8 µM (inactive) in [8]; > 100 µM (inactive) in experiment [9]; 21.1 µM (inactive) in experiment [10]; 26.2 µM (inactive) in experiment [11]; > 100 µM (inactive) in [12]. The GI50 in experiment [13] was 73.1 µM (inactive); in experiment [14], > 80.5 µM (inactive); in experiment [15], 19.7 µM (inactive); in experiment [16], 71.6 µM (inactive); in [17], > 100 µM (inactive); in [18], > 86.1 µM (inactive). Also, the GI50 in experiment [19] was 56.4 µM (inactive); in experiment [20] it was 27.5 µM (inactive).

For `CC1(C)c2ccccc2N2C(c3ccccc3)=NOC21C` (configuration not stated), the GI50 in experiment [1], in experiment [2], in experiment [3], in experiment [4], in experiment [5] and in experiment [6] was > 100 µM (inactive) each time. Besides, the GI50 in [7], in experiment [8], in experiment [9], in experiment [10], in experiment [12] and in experiment [13] was > 100 µM (inactive) each time. The GI50 in experiment [15], in experiment [16], in experiment [17], in experiment [18], in experiment [19] and in experiment [20] was > 100 µM (inactive) each time.

Consider `Cc1cc(Cl)ccc1NC(=O)C1C(=O)N(c2ccc(Cl)cc2C)C(=O)/C1=N\N` (configuration not stated), for which the GI50 is 34.4 µM (inactive) in experiment [1]; 35.8 µM (inactive) in experiment [2]; 34.1 µM (inactive) in [3]; 60.5 µM (inactive) in experiment [4]; 53.5 µM (inactive) in experiment [5]; 27 µM (inactive) in experiment [6]. In addition, the GI50 is 30.1 µM (inactive) in [7]; 51.6 µM (inactive) in experiment [8]; 25.4 µM (inactive) in experiment [9]; 28.9 µM (inactive) in experiment [10]; 53.6 µM (inactive) in experiment [12]; 71.8 µM (inactive) in experiment [13]. For the same molecule, the GI50 in experiment [15] is 42.6 µM (inactive); in experiment [16], 28.3 µM (inactive); in experiment [17] it was 28.6 µM (inactive); in [18], 30.8 µM (inactive); in [19] it was 44.6 µM (inactive); in experiment [20], 38.9 µM (inactive).

Take `CC(C)N(CCn1c2c3ccccc3ccc2c2oc(=O)c3ccccc3c21)C(C)C`: the GI50 in experiment [1], in [2], in experiment [3], in experiment [4], in experiment [5] and in experiment [6] was > 100 µM (inactive) in each case. Also, the GI50 is > 100 µM (inactive) in experiment [7]; > 100 µM (inactive) in experiment [8]; > 100 µM (inactive) in experiment [9]; > 52.2 µM (inactive) in experiment [10]; > 100 µM (inactive) in experiment [12]; > 100 µM (inactive) in experiment [13]. For the same molecule, the GI50 in [15] is 25.2 µM (inactive); in experiment [16], > 100 µM (inactive); in [17], > 100 µM (inactive); in [18] it was > 100 µM (inactive); in experiment [19], > 43.3 µM (inactive); in experiment [20], 65.8 µM (inactive).

`CCC1(OC(=O)CN2CCN(CCO)CC2)C(=O)OCc2c1cc1n(c2=O)Cc2cc3ccccc3nc2-1` (configuration not stated): the GI50 was 0.307 µM (active) in experiment [1]; 0.0759 µM (active) in experiment [2]; 0.0667 µM (active) in [3]; 1.1 µM (active) in experiment [4]; 0.306 µM (active) in [5]; 4.25 µM (inactive) in experiment [6]. Further, the GI50 in experiment [7] is 0.558 µM (active); in [8], 0.0614 µM (active); in experiment [9], 0.457 µM (active); in experiment [10], 0.141 µM (active); in [11] it was 14 µM (inactive); in [12], 0.931 µM (active). For the same molecule, the GI50 in experiment [13] is 1.95 µM (inactive); in experiment [14], 0.0822 µM (active); in [15] it was 0.234 µM (active); in experiment [16], 0.514 µM (active); in experiment [17], 0.0324 µM (active); in [18], 1.96 µM (inactive). Moreover, the GI50 in [19] is 0.188 µM (active); in experiment [20], 0.216 µM (active).

For the origin of these results see ChEMBL document CHEMBL1201862, “PubChem BioAssay data set” (2004).
